Results taken from ChEMBL document CHEMBL5131530, “5-Oxopyrrolidine-3-carboxamides as Nav1.8 Inhibitors for Treating Pain Disorders, Cough Disorders, and Acute and Chronic Itch Disorders” (ACS Med Chem Lett, 2022).
Each block holds one molecule with its values, some of them ahead of it.

Target: Sodium channel protein type 10 subunit alpha (Homo sapiens, UniProt Q9Y5Y9)
Assay: Inhibition of human Nav1.8 channel stably expressed in HEK293 cells assessed as sodium current flow at holding potential of -90mV by whole-cell voltage clamp assay
Assay type: cell-based

Sodium channel protein type 10 subunit alpha, sequence (Q9Y5Y9 whole entry, looked up): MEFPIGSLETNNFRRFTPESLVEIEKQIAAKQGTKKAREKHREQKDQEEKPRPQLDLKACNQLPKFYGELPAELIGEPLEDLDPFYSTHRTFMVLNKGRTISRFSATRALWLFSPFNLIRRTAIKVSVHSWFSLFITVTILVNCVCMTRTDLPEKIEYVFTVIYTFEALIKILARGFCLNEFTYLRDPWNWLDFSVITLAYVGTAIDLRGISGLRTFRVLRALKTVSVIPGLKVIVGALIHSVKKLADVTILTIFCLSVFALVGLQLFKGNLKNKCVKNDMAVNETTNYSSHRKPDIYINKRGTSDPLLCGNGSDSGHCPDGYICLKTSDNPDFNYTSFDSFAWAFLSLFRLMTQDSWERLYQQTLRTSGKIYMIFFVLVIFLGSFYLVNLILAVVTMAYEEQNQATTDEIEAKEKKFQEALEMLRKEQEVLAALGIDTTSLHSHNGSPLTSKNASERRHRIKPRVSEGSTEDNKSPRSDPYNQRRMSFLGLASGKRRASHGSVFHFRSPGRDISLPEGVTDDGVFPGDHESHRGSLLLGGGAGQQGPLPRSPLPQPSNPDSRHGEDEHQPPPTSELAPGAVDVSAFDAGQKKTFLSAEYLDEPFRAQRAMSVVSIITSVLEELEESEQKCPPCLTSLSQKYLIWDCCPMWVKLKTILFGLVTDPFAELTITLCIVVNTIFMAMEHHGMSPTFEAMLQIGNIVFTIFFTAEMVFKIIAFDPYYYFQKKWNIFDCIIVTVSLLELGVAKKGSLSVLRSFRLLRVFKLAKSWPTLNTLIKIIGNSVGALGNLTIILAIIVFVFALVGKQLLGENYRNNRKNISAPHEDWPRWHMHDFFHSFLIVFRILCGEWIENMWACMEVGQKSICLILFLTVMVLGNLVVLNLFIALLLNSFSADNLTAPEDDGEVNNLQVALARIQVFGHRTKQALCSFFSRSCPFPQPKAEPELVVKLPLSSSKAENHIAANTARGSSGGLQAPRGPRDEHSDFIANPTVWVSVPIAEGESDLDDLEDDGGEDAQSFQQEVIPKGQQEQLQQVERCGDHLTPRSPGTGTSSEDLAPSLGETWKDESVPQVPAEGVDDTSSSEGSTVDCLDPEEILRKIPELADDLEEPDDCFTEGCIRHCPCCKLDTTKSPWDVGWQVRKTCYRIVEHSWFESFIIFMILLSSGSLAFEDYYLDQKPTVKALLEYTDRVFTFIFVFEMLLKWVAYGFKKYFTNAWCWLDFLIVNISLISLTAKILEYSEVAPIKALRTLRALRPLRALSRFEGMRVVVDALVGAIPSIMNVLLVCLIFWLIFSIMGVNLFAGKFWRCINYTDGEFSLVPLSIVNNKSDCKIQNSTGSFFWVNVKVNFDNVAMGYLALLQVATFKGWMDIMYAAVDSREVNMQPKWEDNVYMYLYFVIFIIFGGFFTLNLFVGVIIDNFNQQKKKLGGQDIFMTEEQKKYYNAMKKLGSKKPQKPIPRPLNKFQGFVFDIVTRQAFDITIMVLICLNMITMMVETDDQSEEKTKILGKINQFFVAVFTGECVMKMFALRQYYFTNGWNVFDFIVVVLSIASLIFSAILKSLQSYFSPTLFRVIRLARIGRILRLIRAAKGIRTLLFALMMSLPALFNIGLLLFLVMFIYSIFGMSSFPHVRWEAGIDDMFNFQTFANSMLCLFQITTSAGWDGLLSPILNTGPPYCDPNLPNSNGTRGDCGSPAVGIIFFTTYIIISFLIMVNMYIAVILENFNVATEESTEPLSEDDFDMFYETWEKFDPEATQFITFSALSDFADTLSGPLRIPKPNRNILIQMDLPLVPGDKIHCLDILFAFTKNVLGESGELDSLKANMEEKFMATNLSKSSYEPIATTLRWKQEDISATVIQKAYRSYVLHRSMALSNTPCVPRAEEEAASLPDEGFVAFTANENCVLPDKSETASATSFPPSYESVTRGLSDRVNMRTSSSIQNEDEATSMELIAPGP

SMILES: O=C1C[C@H](C(=O)NC(c2ccc(Cl)cc2)c2ccc(OC(F)(F)F)cc2)CN1 (stereo partly specified)
IC50: 4.1 nM

SMILES: O=C1C[C@H](C(=O)NC(c2ccc(F)c(Cl)c2)c2ccc(F)c(C(F)(F)F)n2)CN1 (stereo partly specified)
IC50: 2.9 nM

SMILES: O=C1C[C@H](C(=O)NC(c2ccc(Cl)cc2)c2ccc(Cl)c(C(F)(F)F)c2)CN1 (stereo partly specified)
IC50: 1.2 nM

SMILES: O=C1C[C@H](C(=O)NC(c2cnc(C(F)(F)F)c(Cl)c2)c2ccc(F)c(Cl)c2F)CN1 (stereo partly specified)
IC50: 4.2 nM

Continued, values first:

IC50: 2.6 nM
SMILES: O=C1C[C@H](C(=O)NC(c2ccc(Cl)cc2)c2ccc(F)c(C(F)(F)F)c2)CN1 (stereo partly specified)

IC50: 3.4 nM
SMILES: O=C1C[C@H](C(=O)NC(c2ccc(Cl)cc2)c2ccc(F)c(Cl)c2)CN1 (stereo partly specified)
